Measured values from patent US20210255193A1, “LYSINE REACTIVE PROBES AND USES THEREOF” (The Scripps Research Institute, priority 2017, published 2021).

Key:
Assay in all cases: competitive isoTOP-ABPP
Assay type in all cases: binding
[1] = target: T1, ERO1L ERO1-like protein alpha (Homo sapiens, UniProt Q96HE7); conditions: for R value (DMSO/fragment) for probe 1 labeling: Q96HE7_K413; for R value (DMSO/fragment) for probe 1 labeling / isoTOP-ABPP reactivity ratio at lysine Q96HE7_K413 / isoTOP-ABPP ratio (R) at liganded lysine Q96HE7_K413: 50 uM, in vitro; for R value (DMSO/fragment) for probe 1 labeling / isoTOP-ABPP reactivity ratio at lysine Q96HE7_K413: 231 sol; for isoTOP-ABPP ratio (R) at liganded lysine Q96HE7_K413: sol, 231; for isoTOP-ABPP ratio, lysine Q96HE7_K413: possible other lysine Q86YB8_K412
T1 construct: isoTOP-ABPP experiments performed in cell lysates (in vitro); endogenous in cells; host or cells: soluble proteome of human cancer cell lines (MDA-MB-231; Ramos and Jurkat also prepared)
T1 sequence (Q96HE7 24-468): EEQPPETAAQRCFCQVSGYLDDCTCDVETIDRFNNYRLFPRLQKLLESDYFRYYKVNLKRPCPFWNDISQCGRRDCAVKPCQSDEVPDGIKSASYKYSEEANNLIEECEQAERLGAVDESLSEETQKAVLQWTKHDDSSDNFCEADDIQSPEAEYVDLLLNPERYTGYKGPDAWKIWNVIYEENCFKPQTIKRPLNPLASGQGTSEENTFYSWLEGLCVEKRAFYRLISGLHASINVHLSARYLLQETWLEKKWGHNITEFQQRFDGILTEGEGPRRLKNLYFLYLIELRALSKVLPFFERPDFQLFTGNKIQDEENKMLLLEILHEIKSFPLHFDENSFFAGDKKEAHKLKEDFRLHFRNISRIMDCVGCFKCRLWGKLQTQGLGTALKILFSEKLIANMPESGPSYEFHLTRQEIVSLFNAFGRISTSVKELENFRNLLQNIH
Summary of the method: (§1)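 Cell lysate treated in vitro with fragments (50 μM activated esters, 100 μM guanidinylating agents) or DMSO, labelled 1 h at ambient temperature with 0.1 mM STP-alkyne, CuAAC-tagged with light/heavy TEV tags, analysed by MS. R = DMSO/compound MS1 peak-area ratio; lysines with R≥4 called liganded.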

[2] = target: T2, RPS10 40S ribosomal protein S10 (Homo sapiens, UniProt P46783); conditions: for R value (DMSO/fragment) for probe 1 labeling: P46783_K139; for R value (DMSO/fragment) for probe 1 labeling / isoTOP-ABPP reactivity ratio at lysine P46783_K139 / isoTOP-ABPP ratio (R) at liganded lysine P46783_K139: 50 uM, in vitro; for R value (DMSO/fragment) for probe 1 labeling / isoTOP-ABPP reactivity ratio at lysine P46783_K139: 231 sol; for isoTOP-ABPP ratio (R) at liganded lysine P46783_K139: sol, 231
T2 construct: isoTOP-ABPP experiments performed in cell lysates (in vitro); endogenous in cells; host or cells: soluble proteome of human cancer cell lines (MDA-MB-231; Ramos and Jurkat also prepared)
Summary of the method: as §1

[3] = target: T3, TSTA3 GDP-L-fucose synthase (Homo sapiens, UniProt Q13630); conditions: for R value (DMSO/fragment) for probe 1 labeling: Q13630_K108; for R value (DMSO/fragment) for probe 1 labeling / isoTOP-ABPP reactivity ratio at lysine Q13630_K108 / isoTOP-ABPP ratio (R) at liganded lysine Q13630_K108: 50 uM, in vitro; for R value (DMSO/fragment) for probe 1 labeling / isoTOP-ABPP reactivity ratio at lysine Q13630_K108: 231 sol; for isoTOP-ABPP ratio (R) at liganded lysine Q13630_K108: sol, 231
T3 construct: isoTOP-ABPP experiments performed in cell lysates (in vitro); endogenous in cells; host or cells: soluble proteome of human cancer cell lines (MDA-MB-231, Ramos, Jurkat)
T3 sequence (Q13630 whole entry, the tested form may be a part): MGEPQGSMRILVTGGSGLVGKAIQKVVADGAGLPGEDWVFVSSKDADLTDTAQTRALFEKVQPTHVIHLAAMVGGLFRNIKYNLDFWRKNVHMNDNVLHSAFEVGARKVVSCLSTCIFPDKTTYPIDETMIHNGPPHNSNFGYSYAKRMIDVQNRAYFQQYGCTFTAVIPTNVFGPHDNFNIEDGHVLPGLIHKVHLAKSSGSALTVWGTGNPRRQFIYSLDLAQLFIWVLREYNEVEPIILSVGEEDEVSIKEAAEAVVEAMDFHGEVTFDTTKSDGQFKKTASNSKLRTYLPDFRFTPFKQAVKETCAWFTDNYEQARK
Summary of the method: as §1

[4] = target: T4, AKR1C3 Aldo-keto reductase family 1 member C3 (Homo sapiens, UniProt P42330); conditions: for isoTOP-ABPP ratio (R) at liganded lysine P42330_K270: sol, 231; for isoTOP-ABPP ratio, lysine P42330_K270: possible other lysine P52895_K270, P17516_K270, Q04828_K270
T4 construct: isoTOP-ABPP experiments performed in cell lysates (in vitro); endogenous in cells; host or cells: soluble proteome of human cancer cell lines (MDA-MB-231; Ramos and Jurkat also prepared)
T4 sequence (P42330 1-323): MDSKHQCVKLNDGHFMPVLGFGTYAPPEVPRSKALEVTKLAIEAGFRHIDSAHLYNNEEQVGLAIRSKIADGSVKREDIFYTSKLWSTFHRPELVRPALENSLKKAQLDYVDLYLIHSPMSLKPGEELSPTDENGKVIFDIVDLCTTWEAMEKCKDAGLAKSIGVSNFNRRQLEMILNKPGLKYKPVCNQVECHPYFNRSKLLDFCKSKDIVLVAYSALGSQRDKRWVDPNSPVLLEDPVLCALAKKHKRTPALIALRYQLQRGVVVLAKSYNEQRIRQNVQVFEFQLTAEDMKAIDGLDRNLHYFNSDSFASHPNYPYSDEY
Summary of the method: as §1

SMILES: O=C(CCc1cn(-c2ccccc2)nc1-c1ccccc1)Oc1c(F)c(F)c(F)c(F)c1F [fragment 19, Pentafluorophenyl 3-(1,3-diphenyl-1H-pyrazol-4-yl)propanoate]
- R value (DMSO/fragment) for probe 1 labeling [1]: 0.5
- R value (DMSO/fragment) for probe 1 labeling [2]: 1.0
- R value (DMSO/fragment) for probe 1 labeling [3]: 0.8

SMILES: O=C(Oc1c(F)c(F)c(F)c(F)c1F)C(c1ccccc1)c1ccccc1 [fragment 20, Pentafluorophenyl 2,2-diphenylacetate]
- R value (DMSO/fragment) for probe 1 labeling ([4]; P42330_K270, 50 uM, 231 sol, in vitro): 1.4
- R value (DMSO/fragment) for probe 1 labeling [1]: 0.9
- R value (DMSO/fragment) for probe 1 labeling [2]: 0.6

SMILES: O=C(Oc1c(F)c(F)c(F)c(F)c1F)c1cc(C(F)(F)F)cc(C(F)(F)F)c1 [fragment 21, Pentafluorophenyl 3,5-bis(trifluoromethyl)benzoate]
- R value (DMSO/fragment) for probe 1 labeling [1]: 1.4
- R value (DMSO/fragment) for probe 1 labeling [2]: 0.5
- R value (DMSO/fragment) for probe 1 labeling [3]: 1.0

SMILES: CCn1cc(C(=O)Oc2c(F)c(F)c(F)c(F)c2F)c(=O)c2ccc(C)nc21 [fragment 28, Pentafluorophenyl 1-ethyl-7-methyl-4-oxo-1,4-dihydro-1,8-naphthyridine-3-carboxylate]
- isoTOP-ABPP reactivity ratio at lysine P42330_K270 ([4]; 50 uM, 231 sol, in vitro): 1.8
- isoTOP-ABPP reactivity ratio at lysine Q96HE7_K413 [1]: 1.4
- isoTOP-ABPP reactivity ratio at lysine Q13630_K108 [3]: 1.0

SMILES: O=C(CCc1cn(-c2ccccc2)nc1-c1ccccc1)Oc1ccc([N+](=O)[O-])cc1[N+](=O)[O-] [fragment 29, 2,4-Dinitrophenyl 3-(1,3-diphenyl-1H-pyrazol-4-yl)propanoate]
- isoTOP-ABPP reactivity ratio at lysine P42330_K270 ([4]; 50 uM, 231 sol, in vitro): 2.1
- isoTOP-ABPP reactivity ratio at lysine Q96HE7_K413 [1]: 20.0
- isoTOP-ABPP reactivity ratio at lysine P46783_K139 [2]: 20.0
- isoTOP-ABPP reactivity ratio at lysine Q13630_K108 [3]: 1.1

SMILES: O=C(Oc1ccc([N+](=O)[O-])cc1[N+](=O)[O-])C(c1ccccc1)c1ccccc1 [fragment 30, 2,4-Dinitrophenyl 2,2-diphenylacetate]
- isoTOP-ABPP reactivity ratio at lysine Q96HE7_K413 [1]: 1.2
- isoTOP-ABPP reactivity ratio at lysine P46783_K139 [2]: 1.2

SMILES: Cn1cc(CC(=O)Oc2ccc([N+](=O)[O-])cc2[N+](=O)[O-])c2ccccc21 [fragment 32, 2,4-Dinitrophenyl 2-(1-methyl-1H-indol-3-yl)acetate]
- isoTOP-ABPP reactivity ratio at lysine Q96HE7_K413 [1]: 20.0

SMILES: O=C(Oc1ccc([N+](=O)[O-])cc1[N+](=O)[O-])c1ccc2ccccc2n1 [fragment 35, 2,4-Dinitrophenyl quinoline-2-carboxylate]
- isoTOP-ABPP ratio (R) at liganded lysine P42330_K270 ([4]; 50 uM, in vitro): 0.6
- isoTOP-ABPP ratio (R) at liganded lysine Q96HE7_K413 [1]: 2.2

SMILES: O=C(Oc1ccc([N+](=O)[O-])cc1[N+](=O)[O-])c1ccc(-c2ccccc2)cc1 [fragment 37, 2,4-Dinitrophenyl [1,1′-biphenyl]-4-carboxylate]
- isoTOP-ABPP ratio (R) at liganded lysine P42330_K270 ([4]; 50 uM, in vitro): 0.8
- isoTOP-ABPP ratio (R) at liganded lysine Q96HE7_K413 [1]: 2.4
- isoTOP-ABPP ratio (R) at liganded lysine P46783_K139 [2]: 0.6
- isoTOP-ABPP ratio (R) at liganded lysine Q13630_K108 [3]: 2.9

SMILES: O=C(CC12CC3CC(CC(C3)C1)C2)Oc1ccc([N+](=O)[O-])cc1[N+](=O)[O-] [fragment 38, 2,4-Dinitrophenyl 2-(adamantan-1-yl)acetate]
- isoTOP-ABPP ratio (R) at liganded lysine P42330_K270 ([4]; 50 uM, in vitro): 0.9
- isoTOP-ABPP ratio (R) at liganded lysine P46783_K139 [2]: 1.0
- isoTOP-ABPP ratio (R) at liganded lysine Q13630_K108 [3]: 0.9

SMILES: CC(C)(C)OC(=O)NCCCC(=O)Oc1ccc([N+](=O)[O-])cc1[N+](=O)[O-] [fragment 41, 2,4-Dinitrophenyl 4-((tert-butoxycarbonyl)amino)butanoate]
- isoTOP-ABPP ratio (R) at liganded lysine P42330_K270 ([4]; 50 uM, in vitro): 0.7
- isoTOP-ABPP ratio (R) at liganded lysine Q96HE7_K413 [1]: 1.7
- isoTOP-ABPP ratio (R) at liganded lysine Q13630_K108 [3]: 1.3

SMILES: O=C(Oc1ccc([N+](=O)[O-])cc1[N+](=O)[O-])C(c1ccccc1)(c1ccccc1)c1ccccc1 [fragment 42, 2,4-Dinitrophenyl 2,2,2-triphenylacetate]
- isoTOP-ABPP ratio (R) at liganded lysine P42330_K270 ([4]; 50 uM, in vitro): 0.9
- isoTOP-ABPP ratio (R) at liganded lysine P46783_K139 [2]: 1.0
- isoTOP-ABPP ratio (R) at liganded lysine Q13630_K108 [3]: 1.0

SMILES: CC(=O)Oc1ccc([N+](=O)[O-])cc1[N+](=O)[O-] [fragment 43, 2,4-Dinitrophenyl acetate]
- isoTOP-ABPP ratio (R) at liganded lysine Q96HE7_K413 [1]: 2.0

SMILES: N#Cc1ccc(C(=O)Oc2ccc([N+](=O)[O-])cc2[N+](=O)[O-])cc1 [fragment 44, 2,4-Dinitrophenyl 4-cyanobenzoate]
- isoTOP-ABPP ratio, lysine P42330_K270 ([4]; 50 uM_231_sol_in vitro): 0.5
- isoTOP-ABPP ratio, lysine Q96HE7_K413 ([1]; 50 uM_231_sol_in vitro): 1.9
- isoTOP-ABPP ratio, lysine P46783_K139 ([2]; 50 uM_231_sol_in vitro): 0.6

SMILES: O=C(ON1C(=O)CCC1=O)c1cc(C(F)(F)F)cc(C(F)(F)F)c1 [fragment 46, 3,5-Bis(trifluoromethyl)benzoic acid NHS ester]
- isoTOP-ABPP ratio, lysine Q96HE7_K413 ([1]; 50 uM_231_sol_in vitro): 6.5
- isoTOP-ABPP ratio, lysine Q13630_K108 ([3]; 50 uM_231_sol_in vitro): 2.7

SMILES: CC(C)(C)OC(=O)N=C(NC(=O)OC(C)(C)C)n1cccn1 [fragment 50, reference compound]
- isoTOP-ABPP ratio, lysine P42330_K270 ([4]; 100 uM_231_sol_in vitro): 0.7
- isoTOP-ABPP ratio, lysine Q96HE7_K413 ([1]; 100 uM_231_sol_in vitro): 1.4
- isoTOP-ABPP ratio, lysine P46783_K139 ([2]; 100 uM_231_sol_in vitro): 1.1
- isoTOP-ABPP ratio, lysine Q13630_K108 ([3]; 100 uM_231_sol_in vitro): 1.0
